Test results reported in article PMC11467737, “Osteocalcin binds to a GPRC6A Venus fly trap allosteric site to positively modulate GPRC6A signaling” (FASEB BioAdvances, 2024).
Where a chain is given by its changes, count along the chain named. Bridge positions count the residues as written; N and C are the ends. Ends that are not written are not given here.

Assays:
[1] = molecular target: T1, K352E/H355P hGPRC6A (Homo sapiens, UniProt Q5T6X5, H355P/K352E); assay: ERK activation in HEK-293 cells transfected with K352E/H355P hGPRC6A; type: cell-based; settings: for ERK activation by Ocn small fragments: K352E/H355P double mutant, fragment at 20 nM, Figure 6D
T1 construct: expressed in transfected cells; host or cells: HEK-293, pcDNA3
T1 sequence (Q5T6X5 19-926 K352E/H355P): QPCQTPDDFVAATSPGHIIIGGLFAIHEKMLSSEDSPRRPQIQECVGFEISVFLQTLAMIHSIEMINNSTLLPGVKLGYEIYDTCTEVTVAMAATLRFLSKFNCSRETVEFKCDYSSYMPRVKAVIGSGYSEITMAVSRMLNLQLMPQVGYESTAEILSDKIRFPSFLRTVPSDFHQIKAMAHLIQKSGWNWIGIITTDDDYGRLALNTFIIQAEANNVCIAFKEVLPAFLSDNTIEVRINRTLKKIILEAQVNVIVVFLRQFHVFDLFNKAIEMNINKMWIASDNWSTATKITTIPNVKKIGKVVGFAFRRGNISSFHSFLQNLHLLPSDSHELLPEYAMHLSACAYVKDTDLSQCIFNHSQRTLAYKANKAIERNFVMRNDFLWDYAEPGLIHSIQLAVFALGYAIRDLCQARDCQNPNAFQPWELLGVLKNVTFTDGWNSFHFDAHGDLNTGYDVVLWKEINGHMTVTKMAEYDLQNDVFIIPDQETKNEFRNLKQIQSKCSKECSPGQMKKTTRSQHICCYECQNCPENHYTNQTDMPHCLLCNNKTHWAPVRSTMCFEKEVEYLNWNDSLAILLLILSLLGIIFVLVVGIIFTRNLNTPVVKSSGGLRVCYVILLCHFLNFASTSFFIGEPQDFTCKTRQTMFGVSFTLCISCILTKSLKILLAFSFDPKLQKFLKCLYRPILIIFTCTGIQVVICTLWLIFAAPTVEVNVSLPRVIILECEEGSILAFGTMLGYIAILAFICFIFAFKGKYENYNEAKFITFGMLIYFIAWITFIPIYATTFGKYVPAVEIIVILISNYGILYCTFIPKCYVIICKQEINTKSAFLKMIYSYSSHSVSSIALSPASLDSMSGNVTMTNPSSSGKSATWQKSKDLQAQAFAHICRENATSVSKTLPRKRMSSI
Method: (§1) All culture reagents were from Invitrogen (Waltham, MA, USA). Human embryonic kidney HEK‐293 cells were obtained from American Type Culture Collection and cultured in DMEM medium supplemented with 10% fetal bovine serum and 1% Penicillin/Streptomycin (P/S). Briefly, HEK‐293 cells transfected with/without human GPRC6A isoforms cDNA plasmids were starved by overnight incubation in serum‐free DMEM/F12 containing 0.1% bovine serum albumin (BSA) and stimulated with various ligands at different doses. ERK activation was assessed 20 min after treatment by using ERK1/2 (phospho‐T203/Y204) ELISA Kit (Invitrogen; Waltham, MA, USA) corrected for the amount of total ERK using ERK1/2 (Total) ELISA Kit (Invitrogen; Waltham, MA, USA) to measure ERK levels.
(§2) In‐vitro mutagenesis by PCR‐mediated recombination QuikChange II XL Site‐Directed Mutagenesis Kit (Agilent) was performed using the cDNA of human GPRC6A cloned in the vector pcDNA3 (Invitrogen) as a template. The primer sets are as follows. K352E.sen: […]; K352E.antisen: […]; H355P.sen: […]; H355P.antisen: […]; K352E/H355P.sen: […]; and K352E/H355P.antisen: […]. All mutants were confirmed by sequencing.

[2] = molecular target: T2, H355P hGPRC6A (Homo sapiens, UniProt Q5T6X5, H355P); assay: ERK activation in HEK-293 cells transfected with H355P hGPRC6A; type: cell-based; settings: H355P mutant; for ERK activation by Ocn small fragments: fragment at 20 nM, Figure 6D
T2 construct: expressed in transfected cells; host or cells: HEK-293, pcDNA3
T2 sequence (Q5T6X5 19-926 H355P): T1 sequence (Q5T6X5 19-926 K352E/H355P) with E334K
Method: as §1, §2

Row | Substance | ERK activation by Ocn small fragments [1] | ERK activation by Ocn small fragments [2] | ERK phosphorylation, dose response of full-length Ocn, versus wild-type receptor ([1]; K352E/H355P mutant, Figure 6B) | ERK phosphorylation, dose response of full-length Ocn, versus wild-type receptor ([2]; Figure 6B)
1 | REVCELNPDC (disulfide 4-10 (inferred)) [Ocn 20–29, synthesized human Ocn decapeptide fragment located in the middle of the protein] | no response | no response | – | –
2 | RFYGPV [Ocn 44–49, synthesized human Ocn C‐terminal hexapeptide] | partially activate | significantly attenuated | – | –
3 | osteocalcin (YLYQWLGAPVPYPDPLEPRREVCELNPDCDELADHIGFQEAYRRFYGPV; not fully specified; ends and bridges not checked; UniProt P02818 52-100, looked up) [Ocn 1–49, full human Ocn (49 aa) synthesized by BioMatik; methods also describe decarboxylated Ocn purified from bovine tibial bone, reference compound] | – | – | significantly decreased | significantly decreased
